Reference: patent US12544370B2, “Methods for cancer therapy” (ASCENTAGE PHARMA (SUZHOU) CO., LTD., priority 2018, dated 2026)

System: TKI-resistant patients with chronic phase (CP) or accelerated phase (AP) CML
Experiment: Phase I study, safety / treatment related adverse events (Example 1)
Source text: The eligible patients received treatments until disease progression or intolerable toxicities. The primary efficacy endpoint in the CML AP and CP patients, was complete hematological response (CHR) and major cytogenetic response (MCyR) respectively, MCyR includes partial cytogenetic response (PCyR) and complete cytogenetic response (CCyR). Blood samples were collected at various time points on Day 1-2 and Day 27-28 during cycle 1 for PK analyses.
• 3 to 6 subjects in each dose group (traditional 3+3 dose increasing method) • Up to 15 subjects in the MTD dose group (safety and PK characteristics) • Dose extension studies: • Up to 60 subjects (CP/CML-AP) • Extended dose selection is based on initial safety and efficacy Study Endpoints Primary Endpoint

[1] = Example 1, Table 1, 70 patients

Cc1ccc(C(=O)Nc2ccc(CN3CCN(C)CC3)c(C(F)(F)F)c2)cc1C#Cc1cnc2[nH]ncc2c1 [compound of formula (I-A), 3-(2-(1H-pyrazolo[3,4-b]pyridin-5-yl)ethynyl)-4-methyl-N-(4-((4-methylpiperazin-1-yl)methyl)-3-(trifluoromethyl)phenyl)-benzamide]
15 (21%) n (%): TRAE ALT increased, Any grade [1]
1 n: Anemia leading to dose interruption/reduction (Example 1, 30 mg (n = 37)) | Atrial fibrillation leading to dose interruption/reduction (Example 1, 30 mg (n = 37)) | Hyperkalemia leading to dose interruption/reduction (Example 1, 30 mg (n = 37)) | Hypertriglyceridemia leading to dose interruption/reduction (Example 1, 30 mg (n = 37)) | ALT increased leading to dose interruption/reduction (Example 1, 40 mg (n = 37)) | AST increased leading to dose interruption/reduction (Example 1, 40 mg (n = 37)) | GGT increased leading to dose interruption/reduction (Example 1, 40 mg (n = 37)) | Lipase increased leading to dose interruption/reduction (Example 1, 40 mg (n = 37))
20 (29%) n (%): TRAE Hyperbilirubinemia, Any grade [1]
10 (14%) n (%): TRAE GGT increased, Any grade [1]
2 (2.9%) n (%): TRAE Hypertriglyceridaemia, Grade 3-4 [1]
18 (26%) n (%): TRAE CPK increased, Any grade [1]
6 (8.6%) n (%): TRAE Anaemia, Any grade [1] | TRAE Skin mass, Any grade [1]
(5.4%): Hypocalcemia leading to dose interruption/reduction, percent of cohort (Example 1, 30 mg (n = 37))
1(25%) n (%): Amylase increased leading to dose interruption/reduction (Example 1, 20 mg (n = 4)) | Thrombocytopenia leading to dose interruption/reduction (Example 1, 20 mg (n = 4))
(32%): Thrombocytopenia leading to dose interruption/reduction, percent of cohort (Example 1, 30 mg (n = 37))
12 n: Thrombocytopenia leading to dose interruption/reduction (Example 1, 30 mg (n = 37))
11 (16%) n (%): TRAE Myalgia, Any grade [1] | TRAEs Non-hematological, Grade 3-4 [1]
4 (5.7%) n (%): TRAE Creatinine increased, Any grade [1] | TRAE Pyrexia, Grade 3-4 [1]
35 (50%) n (%): TRAE Thrombocytopenia, Any grade [1] | TRAE Thrombocytopenia, Grade 3-4 [1]
25 (36%) n (%): TRAE Hypocalcaemia, Any grade [1]
5 (7.1%) n (%): TRAE Anaemia, Grade 3-4 [1] | TRAE Hyperglycaemia, Any grade [1] | TRAE Hyponatraemia, Any grade [1]
44 (63%) n (%): TRAEs Overall, Grade 3-4 [1]
(2.7%): Anemia leading to dose interruption/reduction, percent of cohort (Example 1, 30 mg (n = 37)) | Atrial fibrillation leading to dose interruption/reduction, percent of cohort (Example 1, 30 mg (n = 37)) | Hyperkalemia leading to dose interruption/reduction, percent of cohort (Example 1, 30 mg (n = 37)) | Hypertriglyceridemia leading to dose interruption/reduction, percent of cohort (Example 1, 30 mg (n = 37)) | ALT increased leading to dose interruption/reduction, percent of cohort (Example 1, 40 mg (n = 37)) | AST increased leading to dose interruption/reduction, percent of cohort (Example 1, 40 mg (n = 37)) | GGT increased leading to dose interruption/reduction, percent of cohort (Example 1, 40 mg (n = 37))
17 (24%) n (%): TRAE AST increased, Any grade [1] | TRAE Skin hyperpigmentation, Any grade [1]
13 (19%) n (%): TRAE Pyrexia, Any grade [1]
67 (96%) n (%): TRAEs Non-hematological, Any grade [1] | TRAEs Overall, Any grade [1]
9 (13%) n (%): TRAE Rash, Any grade [1]
36 (51%) n (%): TRAE Hypertriglyceridaemia, Any grade [1] | TRAEs Hematological, Any grade [1] | TRAEs Hematological, Grade 3-4 [1]
12 (17%) n (%): TRAE Hypokalaemia, Any grade [1] | TRAE Leucocytopenia, Any grade [1] | TRAE Leucocytopenia, Grade 3-4 [1]
1 (1.4%) n (%): TRAE CPK increased, Grade 3-4 [1]
0 n (%): TRAE ALT increased, Grade 3-4 [1] | TRAE AST increased, Grade 3-4 [1] | TRAE Creatinine increased, Grade 3-4 [1] | TRAE GGT increased, Grade 3-4 [1] | TRAE Hyperbilirubinemia, Grade 3-4 [1] | TRAE Hyperglycaemia, Grade 3-4 [1] | TRAE Hypocalcaemia, Grade 3-4 [1] | TRAE Hypokalaemia, Grade 3-4 [1] | TRAE Hyponatraemia, Grade 3-4 [1] | TRAE Myalgia, Grade 3-4 [1] | TRAE Rash, Grade 3-4 [1] | TRAE Skin hyperpigmentation, Grade 3-4 [1] | TRAE Skin mass, Grade 3-4 [1] | ALT increased leading to dose interruption/reduction (Example 1, 20 mg (n = 4)) | AST increased leading to dose interruption/reduction (Example 1, 20 mg (n = 4)) | Anemia leading to dose interruption/reduction (Example 1, 20 mg (n = 4)) | Atrial fibrillation leading to dose interruption/reduction (Example 1, 20 mg (n = 4)) | Cardiomyopathy leading to dose interruption/reduction (Example 1, 20 mg (n = 4)) | GGT increased leading to dose interruption/reduction (Example 1, 20 mg (n = 4)) | Hyperkalemia leading to dose interruption/reduction (Example 1, 20 mg (n = 4)) | Hypertriglyceridemia leading to dose interruption/reduction (Example 1, 20 mg (n = 4)) | Hypocalcemia leading to dose interruption/reduction (Example 1, 20 mg (n = 4)) | Lacunar infarction leading to dose interruption/reduction (Example 1, 20 mg (n = 4)) | Lipase increased leading to dose interruption/reduction (Example 1, 20 mg (n = 4)) | ALT increased leading to dose interruption/reduction (Example 1, 30 mg (n = 37)) | AST increased leading to dose interruption/reduction (Example 1, 30 mg (n = 37)) | Amylase increased leading to dose interruption/reduction (Example 1, 30 mg (n = 37)) | Cardiomyopathy leading to dose interruption/reduction (Example 1, 30 mg (n = 37)) | GGT increased leading to dose interruption/reduction (Example 1, 30 mg (n = 37)) | Lacunar infarction leading to dose interruption/reduction (Example 1, 30 mg (n = 37)) | Lipase increased leading to dose interruption/reduction (Example 1, 30 mg (n = 37)) | Amylase increased leading to dose interruption/reduction (Example 1, 40 mg (n = 37)) | Anemia leading to dose interruption/reduction (Example 1, 40 mg (n = 37)) | Atrial fibrillation leading to dose interruption/reduction (Example 1, 40 mg (n = 37)) | Cardiomyopathy leading to dose interruption/reduction (Example 1, 40 mg (n = 37)) | Hyperkalemia leading to dose interruption/reduction (Example 1, 40 mg (n = 37)) | Hypertriglyceridemia leading to dose interruption/reduction (Example 1, 40 mg (n = 37)) | Hypocalcemia leading to dose interruption/reduction (Example 1, 40 mg (n = 37)) | Lacunar infarction leading to dose interruption/reduction (Example 1, 40 mg (n = 37))
2 n: Hypocalcemia leading to dose interruption/reduction (Example 1, 30 mg (n = 37))
